Values of other authors in patent US20100047341A1, “COMBINED PREPARATION FOR THE TREATMENT OF CARDIOVASCULAR DISEASES BASED ON CHRONOTHERAPY THEORY” (HANALL PHARMACEUTICAL CO., LTD., priority 2006, published 2010).

Row | SMILES | time to maximum level in blood (losartan itself as active form released from the liver to blood) | time to maximum plasma concentration (after the conversion of losartan in the liver) [h]
1 | CCCCc1nc(Cl)c(CO)n1Cc1ccc(-c2ccccc2-c2nn[nH]n2)cc1 [Losartan, 2-butyl-4chloro-1-[p-(o-1H-tetrazol-5-ylphenyl)benzyl]imidazole-5-methanol] | an hour | –
2 | CCCCc1nc(Cl)c(C(=O)O)n1Cc1ccc(-c2ccccc2-c2nn[nH]n2)cc1 [losartan carboxylate] | – | 3 to 4
